From PubChem BioAssay AID1259407 (Chemical Carcinogenesis Research Information System (CCRIS), 2018)
Active and inactive are the calls of the source. No rule for the calls is given here.

Tested on: CCRIS mutagenicity, Ames/micronucleus/aberration tests
Test: CCRIS mutagenicity studies
[1] = Test System: AMES SALMONELLA TYPHIMURIUM, Strain/Indicator: TA97, Metabolic Activation: HAMSTER, LIVER, S-9, AROCLOR 1254 (10%), Method: PREINCUBATION
[2] = Test System: AMES SALMONELLA TYPHIMURIUM, Strain/Indicator: TA97, Metabolic Activation: NONE, Method: PREINCUBATION
[3] = Test System: AMES SALMONELLA TYPHIMURIUM, Strain/Indicator: TA97, Metabolic Activation: RAT, LIVER, S-9, AROCLOR 1254 (10%), Method: PREINCUBATION
[4] = Test System: AMES SALMONELLA TYPHIMURIUM, Strain/Indicator: TA98, Metabolic Activation: HAMSTER, LIVER, S-9, AROCLOR 1254 (10%), Method: PREINCUBATION
[5] = Test System: AMES SALMONELLA TYPHIMURIUM, Strain/Indicator: TA98, Metabolic Activation: NONE, Method: PREINCUBATION
[6] = Test System: AMES SALMONELLA TYPHIMURIUM, Strain/Indicator: TA98, Metabolic Activation: RAT, LIVER, S-9, AROCLOR 1254 (10%), Method: PREINCUBATION
[7] = Test System: AMES SALMONELLA TYPHIMURIUM, Strain/Indicator: TA100, Metabolic Activation: HAMSTER, LIVER, S-9, AROCLOR 1254 (10%), Method: PREINCUBATION
[8] = Test System: AMES SALMONELLA TYPHIMURIUM, Strain/Indicator: TA100, Metabolic Activation: NONE, Method: PREINCUBATION
[9] = Test System: AMES SALMONELLA TYPHIMURIUM, Strain/Indicator: TA100, Metabolic Activation: RAT, LIVER, S-9, AROCLOR 1254 (10%), Method: PREINCUBATION
[10] = Test System: AMES SALMONELLA TYPHIMURIUM, Strain/Indicator: TA1535, Metabolic Activation: HAMSTER, LIVER, S-9, AROCLOR 1254 (10%), Method: PREINCUBATION
[11] = Test System: AMES SALMONELLA TYPHIMURIUM, Strain/Indicator: TA1535, Metabolic Activation: NONE, Method: PREINCUBATION
[12] = Test System: AMES SALMONELLA TYPHIMURIUM, Strain/Indicator: TA98, Metabolic Activation: NONE, Method: STANDARD PLATE

Row | SMILES | mutagenic call [1] | mutagenic call [2] | mutagenic call [3] | mutagenic call [4] | mutagenic call [5] | mutagenic call [6] | mutagenic call [7] | mutagenic call [8] | mutagenic call [9] | mutagenic call [10] | mutagenic call [11] | mutagenic call [12] | also measured
1 | Cc1c(N)cccc1N | active; positive | inactive; negative | inactive; negative | active; positive | inactive; negative | active; positive | active; positive | inactive; negative | active; positive | active; positive | inactive; negative |  | mutagenic call (End Point: IN VITRO CHROMOSOMAL ABERRATIONS, Test System: CHINESE HAMSTER LUNG CELLS (CHL), Metabolic Activation: NONE): active; positive (structural changes); mutagenic call (End Point: IN VITRO CHROMOSOMAL ABERRATIONS, Test System: CHINESE HAMSTER LUNG CELLS (CHL), Metabolic Activation: RAT, LIVER, S-9, KC-400): active; positive (structural changes); mutagenic call (End Point: IN VITRO CHROMOSOMAL ABERRATIONS, Test System: CHINESE HAMSTER OVARY CELLS (CHO), Metabolic Activation: NONE): active; positive (structural changes); mutagenic call (End Point: IN VITRO CHROMOSOMAL ABERRATIONS, Test System: CHINESE HAMSTER OVARY CELLS (CHO), Metabolic Activation: RAT, LIVER, S-9, AROCLOR 1254): inactive; negative; mutagenic call (End Point: IN VITRO CHROMOSOMAL ABERRATIONS, Test System: CHO CELLS, Metabolic Activation: RAT, LIVER, S-9, AROCLOR 1254): inactive; negative; mutagenic call (Test System: AMES SALMONELLA TYPHIMURIUM, Strain/Indicator: TA1535, Metabolic Activation: RAT, LIVER, S-9, AROCLOR 1254 (5, 10 OR 30%), Method: PREINCUBATION): inactive; negative
2 | Cc1ccc(-c2nc3ccccc3o2)cc1 |  |  |  |  |  |  |  |  |  |  |  | inactive; negative | mutagenic call (Test System: AMES SALMONELLA TYPHIMURIUM, Strain/Indicator: TA98, Metabolic Activation: S-9, Method: STANDARD PLATE): inactive; negative
3 | Brc1ccc2c(c1)[C@@H]1O[C@@H]1[C@H]1CCCC[C@H]21 |  |  |  |  |  |  |  |  |  |  |  | inactive; negative | mutagenic call (Test System: AMES SALMONELLA TYPHIMURIUM, Strain/Indicator: TA100, Metabolic Activation: NONE, Method: STANDARD PLATE): inactive; negative
4 | C1=Cc2c3ccc4cccc5ccc(c6cccc1c26)c3c45 |  |  |  |  |  |  |  |  |  |  |  |  | mutagenic call (Test System: AMES SALMONELLA TYPHIMURIUM, Strain/Indicator: TA98, Metabolic Activation: RAT, LIVER, S-9, AROCLOR 1254 (0.55 MG), Method: STANDARD PLATE): active; positive; mutagenic call (Test System: AMES SALMONELLA TYPHIMURIUM, Strain/Indicator: TA100, Metabolic Activation: RAT, LIVER, S-9, AROCLOR 1254 (0.55 MG), Method: STANDARD PLATE): active; positive; mutagenic call (Test System: AMES SALMONELLA TYPHIMURIUM, Strain/Indicator: TA104, Metabolic Activation: RAT, LIVER, S-9, AROCLOR 1254 (0.55 MG), Method: STANDARD PLATE): active; positive; mutagenic call (Test System: AMES SALMONELLA TYPHIMURIUM, Strain/Indicator: TA1535, Metabolic Activation: RAT, LIVER, S-9, AROCLOR 1254 (0.55 MG), Method: STANDARD PLATE): inactive; negative; mutagenic call (Test System: AMES SALMONELLA TYPHIMURIUM, Strain/Indicator: TA1537, Metabolic Activation: RAT, LIVER, S-9, AROCLOR 1254 (0.55 MG), Method: STANDARD PLATE): active; positive; mutagenic call (Test System: AMES SALMONELLA TYPHIMURIUM, Strain/Indicator: TA1538, Metabolic Activation: RAT, LIVER, S-9, AROCLOR 1254 (0.55 MG), Method: STANDARD PLATE): active; positive
5 | CC1CCCC1 | inactive; negative | inactive; negative | inactive; negative | inactive; negative | inactive; negative | inactive; negative | inactive; negative | inactive; negative | inactive; negative | inactive; negative | inactive; negative |  | mutagenic call (Test System: AMES SALMONELLA TYPHIMURIUM, Strain/Indicator: TA97, Metabolic Activation: HAMSTER, LIVER, S-9, AROCLOR 1254 (30%), Method: PREINCUBATION): inactive; negative; mutagenic call (Test System: AMES SALMONELLA TYPHIMURIUM, Strain/Indicator: TA97, Metabolic Activation: RAT, LIVER, S-9, AROCLOR 1254 (30%), Method: PREINCUBATION): inactive; negative; mutagenic call (Test System: AMES SALMONELLA TYPHIMURIUM, Strain/Indicator: TA98, Metabolic Activation: HAMSTER, LIVER, S-9, AROCLOR 1254 (30%), Method: PREINCUBATION): inactive; negative; mutagenic call (Test System: AMES SALMONELLA TYPHIMURIUM, Strain/Indicator: TA98, Metabolic Activation: RAT, LIVER, S-9, AROCLOR 1254 (30%), Method: PREINCUBATION): inactive; negative; mutagenic call (Test System: AMES SALMONELLA TYPHIMURIUM, Strain/Indicator: TA100, Metabolic Activation: HAMSTER, LIVER, S-9, AROCLOR 1254 (30%), Method: PREINCUBATION): inactive; negative; mutagenic call (Test System: AMES SALMONELLA TYPHIMURIUM, Strain/Indicator: TA100, Metabolic Activation: RAT, LIVER, S-9, AROCLOR 1254 (30%), Method: PREINCUBATION): inactive; negative; mutagenic call (Test System: AMES SALMONELLA TYPHIMURIUM, Strain/Indicator: TA1535, Metabolic Activation: HAMSTER, LIVER, S-9, AROCLOR 1254 (30%), Method: PREINCUBATION): inactive; negative; mutagenic call (Test System: AMES SALMONELLA TYPHIMURIUM, Strain/Indicator: TA1535, Metabolic Activation: RAT, LIVER, S-9, AROCLOR 1254 (10%), Method: PREINCUBATION): inactive; negative; mutagenic call (Test System: AMES SALMONELLA TYPHIMURIUM, Strain/Indicator: TA1535, Metabolic Activation: RAT, LIVER, S-9, AROCLOR 1254 (30%), Method: PREINCUBATION): inactive; negative
